Results as given in ChEMBL document CHEMBL5390280, “Design, Synthesis, and Biological Evaluation of an Orally Bioavailable, Potent, and Selective ROCK2 Inhibitor for Psoriasis Treatment” (J Med Chem, 2023).

How the values were obtained:
[1] = molecular target: T1, Rho-associated protein kinase 2 (Homo sapiens, UniProt O75116); experiment: Inhibition of ROCK2 (unknown origin) by HTRF assay
[2] = Selectivity ratio of IC50 for ROCK1 (unknown origin) to IC50 for ROCK2 (unknown origin)
[3] = molecular target: T2, Rho-associated protein kinase 1 (Homo sapiens, UniProt Q13464); experiment: Inhibition of ROCK1 (unknown origin) by HTRF assay
T2 sequence (Q13464 whole entry): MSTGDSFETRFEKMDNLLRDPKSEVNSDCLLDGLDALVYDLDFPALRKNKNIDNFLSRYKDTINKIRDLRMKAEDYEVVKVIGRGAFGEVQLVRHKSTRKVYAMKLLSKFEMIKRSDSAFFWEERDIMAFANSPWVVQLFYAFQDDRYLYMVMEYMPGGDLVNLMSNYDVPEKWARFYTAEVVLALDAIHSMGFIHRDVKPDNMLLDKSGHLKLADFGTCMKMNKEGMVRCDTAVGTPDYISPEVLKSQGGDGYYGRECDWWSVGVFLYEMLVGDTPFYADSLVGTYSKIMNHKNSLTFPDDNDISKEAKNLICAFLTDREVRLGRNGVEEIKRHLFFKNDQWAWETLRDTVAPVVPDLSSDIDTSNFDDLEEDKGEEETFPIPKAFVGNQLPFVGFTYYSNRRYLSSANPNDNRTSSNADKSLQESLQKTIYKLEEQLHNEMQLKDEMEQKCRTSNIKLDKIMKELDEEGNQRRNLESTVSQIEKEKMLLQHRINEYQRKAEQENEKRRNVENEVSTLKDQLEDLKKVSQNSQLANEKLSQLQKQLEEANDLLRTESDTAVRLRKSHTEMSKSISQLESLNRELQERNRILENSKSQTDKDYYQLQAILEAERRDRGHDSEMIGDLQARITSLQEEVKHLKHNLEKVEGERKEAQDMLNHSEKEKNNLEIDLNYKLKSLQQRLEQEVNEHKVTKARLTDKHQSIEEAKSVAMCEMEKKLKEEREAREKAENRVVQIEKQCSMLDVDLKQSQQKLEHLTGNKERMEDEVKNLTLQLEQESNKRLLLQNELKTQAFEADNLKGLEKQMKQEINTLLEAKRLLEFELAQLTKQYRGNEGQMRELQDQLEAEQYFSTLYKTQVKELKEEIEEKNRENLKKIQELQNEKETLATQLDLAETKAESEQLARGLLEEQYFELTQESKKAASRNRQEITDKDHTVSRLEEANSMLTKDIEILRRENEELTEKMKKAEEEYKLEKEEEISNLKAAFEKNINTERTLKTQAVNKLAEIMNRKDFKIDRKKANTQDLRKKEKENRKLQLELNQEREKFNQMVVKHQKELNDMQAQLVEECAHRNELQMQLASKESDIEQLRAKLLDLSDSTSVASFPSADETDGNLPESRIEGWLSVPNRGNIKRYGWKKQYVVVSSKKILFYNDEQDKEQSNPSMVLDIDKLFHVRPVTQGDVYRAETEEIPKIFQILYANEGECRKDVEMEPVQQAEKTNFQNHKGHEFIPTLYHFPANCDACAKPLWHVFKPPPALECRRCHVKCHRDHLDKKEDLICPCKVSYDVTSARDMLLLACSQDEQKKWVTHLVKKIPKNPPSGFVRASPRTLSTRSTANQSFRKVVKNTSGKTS

[4] = molecular target: T2, Rho-associated protein kinase 1; experiment: Inhibition of ROCK1 (unknown origin)
[5] = molecular target: T1, Rho-associated protein kinase 2; experiment: Inhibition of ROCK2 (unknown origin)

T1 sequence (O75116 whole entry): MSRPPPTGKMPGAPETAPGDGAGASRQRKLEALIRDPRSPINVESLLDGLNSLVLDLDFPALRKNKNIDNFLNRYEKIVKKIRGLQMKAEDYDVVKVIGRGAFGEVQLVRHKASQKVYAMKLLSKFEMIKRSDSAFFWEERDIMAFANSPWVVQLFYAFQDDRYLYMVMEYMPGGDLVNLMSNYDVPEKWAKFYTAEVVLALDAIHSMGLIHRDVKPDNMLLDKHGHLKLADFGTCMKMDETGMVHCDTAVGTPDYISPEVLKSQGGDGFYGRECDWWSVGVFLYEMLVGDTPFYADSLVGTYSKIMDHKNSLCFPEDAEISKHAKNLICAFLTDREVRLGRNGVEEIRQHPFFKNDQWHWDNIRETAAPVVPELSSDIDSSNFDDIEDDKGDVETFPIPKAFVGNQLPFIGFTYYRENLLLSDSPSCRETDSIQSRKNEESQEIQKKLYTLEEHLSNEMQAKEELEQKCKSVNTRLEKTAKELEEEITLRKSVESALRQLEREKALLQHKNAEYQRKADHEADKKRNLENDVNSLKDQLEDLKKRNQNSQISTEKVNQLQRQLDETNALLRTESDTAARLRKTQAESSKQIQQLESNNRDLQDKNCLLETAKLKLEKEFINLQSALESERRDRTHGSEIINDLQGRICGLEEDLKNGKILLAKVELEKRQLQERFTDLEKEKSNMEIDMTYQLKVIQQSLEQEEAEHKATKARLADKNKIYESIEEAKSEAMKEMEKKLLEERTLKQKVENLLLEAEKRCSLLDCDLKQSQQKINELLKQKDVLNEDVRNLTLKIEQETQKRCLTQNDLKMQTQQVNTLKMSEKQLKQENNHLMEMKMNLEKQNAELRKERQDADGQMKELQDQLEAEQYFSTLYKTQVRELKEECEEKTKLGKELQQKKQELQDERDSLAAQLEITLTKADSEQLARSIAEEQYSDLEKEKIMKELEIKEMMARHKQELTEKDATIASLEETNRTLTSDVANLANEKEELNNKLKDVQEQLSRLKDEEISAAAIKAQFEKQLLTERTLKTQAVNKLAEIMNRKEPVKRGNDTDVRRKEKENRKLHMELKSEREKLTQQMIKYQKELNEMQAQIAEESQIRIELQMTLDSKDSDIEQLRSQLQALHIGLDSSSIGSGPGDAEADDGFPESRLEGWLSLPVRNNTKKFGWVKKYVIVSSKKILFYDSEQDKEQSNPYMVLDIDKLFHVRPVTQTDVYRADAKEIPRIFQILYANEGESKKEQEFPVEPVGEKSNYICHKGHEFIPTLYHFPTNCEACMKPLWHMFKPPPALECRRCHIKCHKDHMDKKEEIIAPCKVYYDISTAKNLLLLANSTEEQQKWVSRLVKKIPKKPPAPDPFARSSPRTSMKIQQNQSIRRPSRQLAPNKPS

IC50 [1] [nM]	Ratio IC50 [2]	IC50 [3] [nM]	IC50 [4] [nM]	IC50 [5] [nM]	Compound
1	–	–	–	–	Nc1ccn(-c2cccc(CN3CCCC(Nc4ccc5[nH]ncc5c4)C3)c2)c(=O)n1 (stereo not given)
153	5	811	–	–	Cc1cccn(-c2cccc(CN[C@H]3CCC[C@@H](Nc4ccc5[nH]ncc5c4)C3)c2)c1=O
434	–	–	–	–	Cc1cc(=O)n(-c2cccc(CN[C@H]3CCC[C@@H](Nc4ccc5[nH]ncc5c4)C3)c2)cc1N
1.6	216	335	–	–	CC(C)(C)c1ccn(-c2cccc(CN[C@H]3CCC[C@@H](Nc4ccc5[nH]ncc5c4)C3)c2)c(=O)c1
173	2	279	–	–	O=c1cc(C(F)(F)F)ccn1-c1cccc(CN[C@H]2CCC[C@H](Nc3ccc4[nH]ncc4c3)C2)c1
42.4	4	162	–	–	O=c1ccccn1-c1cccc(CN[C@H]2CCC[C@H](Nc3ccc4[nH]ncc4c3)C2)c1
561	–	–	–	–	Cc1cc(=O)n(-c2cccc(CN[C@H]3CCC[C@H](Nc4ccc5[nH]ncc5c4)C3)c2)cc1N
66.2	–	–	–	–	Nc1nc(=O)n(-c2cccc(CN[C@H]3CCC[C@H](Nc4ccc5[nH]ncc5c4)C3)c2)cc1F
130	4	464	–	–	NC(=O)c1ccn(-c2cccc(CN[C@H]3CCC[C@@H](Nc4ccc5[nH]ncc5c4)C3)c2)c(=O)c1
36.6	6	207	–	–	O=c1cc(F)ccn1-c1cccc(CN[C@H]2CCC[C@H](Nc3ccc4[nH]ncc4c3)C2)c1
1.3	162	210	–	–	CC(C)(C)c1ccn(-c2cccc(CN[C@H]3CCC[C@H](Nc4ccc5[nH]ncc5c4)C3)c2)c(=O)c1
–	–	–	150	12	COc1cc(-c2cn[nH]c2)cc2c(=O)[nH]c(C3COc4ccc(OCCN(C)C)cc4C3)nc12 (stereo not given)
83.7	–	–	–	–	Nc1nc(=O)n(-c2cccc(CN[C@H]3CCC[C@@H](Nc4ccc5[nH]ncc5c4)C3)c2)cc1F
102	2	238	–	–	NC(=O)c1ccn(-c2cccc(CN[C@H]3CCC[C@H](Nc4ccc5[nH]ncc5c4)C3)c2)c(=O)c1
0.2	–	–	–	–	Nc1ccn(-c2cccc(CNC3CCCC(Nc4ccc5[nH]ncc5c4)C3)c2)c(=O)n1 (stereo not given)
2	–	–	–	–	Nc1ccn(-c2ccc(CN3CCCCC(Nc4ccc5[nH]ncc5c4)C3)cc2)c(=O)n1 (stereo not given)
1.7	59	99.4	–	–	O=c1cc(-c2ccccc2)ccn1-c1cccc(CN[C@H]2CCC[C@@H](Nc3ccc4[nH]ncc4c3)C2)c1
77.5	–	–	–	–	Nc1ccn(-c2cccc(CN[C@H]3CCC[C@@H](Nc4ccc5[nH]ncc5c4)C3)c2)c(=O)c1

IC50 [1] [nM]	Ratio IC50 [2]	IC50 [3] [nM]	IC50 [4] [nM]	IC50 [5] [nM]	Compound
27	8	216	–	–	Cc1cc(=O)n(-c2cccc(CN[C@H]3CCC[C@@H](Nc4ccc5[nH]ncc5c4)C3)c2)cc1F
138	1	102	–	–	Cc1ccc(=O)n(-c2cccc(CN[C@H]3CCC[C@@H](Nc4ccc5[nH]ncc5c4)C3)c2)c1
0.7	–	–	–	–	Nc1ccn(-c2ccc(CNC3CCCC(Nc4ccc5[nH]ncc5c4)C3)cc2)c(=O)n1 (stereo not given)
26	7	171	–	–	Cc1ccn(-c2cccc(CN[C@H]3CCC[C@H](Nc4ccc5[nH]ncc5c4)C3)c2)c(=O)c1
3	32	96.1	–	–	O=c1cc(-c2ccccc2)ccn1-c1cccc(CN[C@H]2CCC[C@H](Nc3ccc4[nH]ncc4c3)C2)c1
73.7	9	644	–	–	O=c1ccccn1-c1cccc(CN[C@H]2CCC[C@@H](Nc3ccc4[nH]ncc4c3)C2)c1
18.7	15	277	–	–	Cc1cccn(-c2cccc(CN[C@H]3CCC[C@H](Nc4ccc5[nH]ncc5c4)C3)c2)c1=O
5	–	–	–	–	Nc1ccn(-c2ccc(CN3CCCC(Nc4ccc5[nH]ncc5c4)C3)cc2)c(=O)n1 (stereo not given)
77.1	4	272	–	–	N#Cc1ccn(-c2cccc(CN[C@H]3CCC[C@@H](Nc4ccc5[nH]ncc5c4)C3)c2)c(=O)c1
72.8	–	–	–	–	CC(C)CCC(=O)Nc1ccn([C@H]2CC[C@H](O[C@H]3O[C@H](C)[C@@H](N(C)C)[C@H](O)[C@H]3O)[C@@H](C)O2)c(=O)n1
6.1	52	313	–	–	CCc1ccn(-c2cccc(CN[C@H]3CCC[C@@H](Nc4ccc5[nH]ncc5c4)C3)c2)c(=O)c1C
207	5	967	–	–	O=c1cc(C(F)(F)F)ccn1-c1cccc(CN[C@H]2CCC[C@@H](Nc3ccc4[nH]ncc4c3)C2)c1
13.1	16	209	–	–	CCc1ccn(-c2cccc(CN[C@H]3CCC[C@H](Nc4ccc5[nH]ncc5c4)C3)c2)c(=O)c1C
11.9	68	812	–	–	Cc1ccn(-c2cccc(CN[C@H]3CCC[C@@H](Nc4ccc5[nH]ncc5c4)C3)c2)c(=O)c1
35.4	4	152	–	–	Cc1ccc(=O)n(-c2cccc(CN[C@H]3CCC[C@H](Nc4ccc5[nH]ncc5c4)C3)c2)c1
54	–	–	–	–	Nc1ccn(-c2cccc(CN[C@H]3CCC[C@H](Nc4ccc5[nH]ncc5c4)C3)c2)c(=O)c1
88.1	3	273	–	–	O=c1cc(F)ccn1-c1cccc(CN[C@H]2CCC[C@@H](Nc3ccc4[nH]ncc4c3)C2)c1
